Experimental data from patent US20040054014A1, “Method and pharmaceutical compositions forthe treatment of cancer” (priority 2002, published 2004).

Tests used:
[1] = test system: PANC-1, C6, MCF-7, U20S and HT1080 cell lines; conditions: 48 hours; for reduction in cell survival, drug alone: non-resistant cell lines, 0.1 μg/ml DOX, 0.3 μg/ml VIN
C-26 cells [2] = assay: Solid tumor model (inherent MDR); format: in vivo, mice; conditions: for solid tumor volume with time, single agent: fluoxetine 0.04 mg/kg daily oral alone, MMC or DOX 5 mg/kg i.v. alone
Protocol: In the solid tumor model, MDR-inherent C-26 cells were injected into the animal's right-hind footpad.
In the solid tumor model, Mitomycin C (MMC) and Doxorubicin (DOX) were tested separately, each at a dose of 5 mg/kg body.

P388/WT cell line = assay: MTT cell viability, non-resistant cell line; format: cell-based, murine
Protocol: (§1) After 4 hours incubation, the treatment media was replaced with CS- and CT-free media and the experiment was terminated 24 hours later.

P388/ADR cell line = assay: MTT cell viability, MDR-acquired cell line; format: cell-based, murine; conditions: for increase in cell death, combined treatment with DOX: DOX (1, 5, 10 μg/ml) + 5 μM chemosensitizer
Protocol: as §1

P388/ADR cells [3] = assay: Intracellular accumulation of Doxorubicin, confocal microscopy (system II); format: cell-based, murine
Protocol: (§2) At the end of the incubation time, the cells were washed 6 times with PBS, fixed with a mounting medium (Mounting medium with anti-fading agents, Biomeda corp., CA, USA) and were analysed by Confocal microscopy (Zeiss LSM 510). Excitation was at 488 nm and emission was measured using a band pass filter of 505-550 nm.

B16F10 cells = assay: Lung metastasis model (inherent MDR); format: in vivo, mice; conditions: for lung metastatic burden (lung weight, number of metastasis), single agent: Doxorubicin 10 mg/kg alone, chemosensitizer 0.04 mg/kg daily oral alone
[4] = Animals' body weight (treatment toxicity) in P388/WT and P388/ADR models; format: in vivo, mice; conditions: fluoxetine 0.04 mg/kg daily oral only; DOX 3 mg/kg days 1, 5, 9; both tumor models
Protocol: (§3) P388/WT (non-resistant) or P388/ADR (MDR-acquired) murine leukemia cells were propagated in the peritoneum of BDF1 female mice by weekly transfer of 0.5 ml of peritoneal fluid containing 5×10^5 cells, to generate an intraperitoneal ascites model.
(§4) In both models, Doxorubicin (DOX) was tested. Doses of 3 mg/kg body were injected into the lateral tail vain, 1, 5 and 9 days after tumor inoculation.
(§5) Comparative experiments were run in parallel with the sensitive, non-resistant P388/WT model and the corresponding, MDR-acquired P388/ADR model. […] A group of untreated healthy animals was served as a control group. […] The fluoxetine was given in the drinking water, from tumor inoculation and on. Doxorubicin was injected into the lateral tail vain 1, 5 and 9 days post tumor inoculation. The effects of the various treatments on tumor response were monitored through animals' survival and animals' body weight. The latter was monitored in order to assess the treatment toxicity.

C6 cells = conditions: cells loaded with 0.1 μg/ml DOX alone
P388/ADR cells [5] = assay: Intracellular accumulation of Rhodamine-123, flow cytometry (system I); format: cell-based, murine; conditions: 5 μM Rhodamine-123 + […] μM chemosensitizer, suspended cells
Description: The cells were thereafter analyzed for intracellular fluorescence, using a flow cytometer (Becton-Dickinson, USA). Excitation and emission were at 485 nm and 547 nm, respectively.

C-26 cells [6] = assay: Intracellular accumulation of Rhodamine-123, confocal microscopy (system II); format: cell-based, murine; conditions: 5 μM Rhodamine-123 + […] μM chemosensitizer, monolayers
Protocol: as §2

P388/WT = assay: Intraperitoneal ascites model, non-resistant tumor, survival; format: in vivo, mice; conditions: DOX 3 mg/kg + fluoxetine 0.04 mg/kg daily oral
Protocol: as §3, §4, §5

P388/ADR = assay: Intraperitoneal ascites model, MDR-acquired tumor, survival; format: in vivo, mice; conditions: DOX 3 mg/kg + fluoxetine 0.04 mg/kg daily oral
C6 and PANC-1 cells = test system: C6 and PANC-1 cells; parameters: dose or concentration left out as unconfirmed; conditions: […] μM fluoxetine alone, 24 hours
[7] = test system: B16F10 and C-26 cell lines; conditions: Mitomycin C 50 μg/ml or Doxorubicin 1.0 μg/ml with 15 μM fluoxetine
[8] = cited from earlier work
[9] = fluoxetine alone 1-20 μM, 4 hours then 20 hours CS-free media

## CC[C@]1(O)C[C@@H]2CN(CCc3c([nH]c4ccccc34)[C@@](C(=O)OC)(c3cc4c(cc3OC)N(C)[C@H]3[C@@](O)(C(=O)OC)[C@H](OC(C)=O)[C@]5(CC)C=CCN6CC[C@]43[C@@H]65)C2)C1 [Vinblastine]
[1]
  reduction in cell survival, drug alone: 50%

## CO[C@@]12[C@H](COC(N)=O)C3=C(C(=O)C(C)=C(N)C3=O)N1C[C@@H]1N[C@@H]12 [Mitomycin C]
C-26 cells [2]
  solid tumor volume with time, single agent: increases fast and exponentially

## COc1cccc2c1C(=O)c1c(O)c3c(c(O)c1C2=O)C[C@@](O)(C(=O)CO)C[C@@H]3O[C@H]1C[C@H](N)[C@H](O)[C@H](C)O1 [Doxorubicin]
P388/WT cell line; 0.5 μg/ml DOX alone
  cell death: about 50%
P388/WT cell line; 5 μg/ml DOX alone
  cell death: 100%
P388/ADR cell line; 5 μg/ml DOX alone
  cell death: < 20%
P388/ADR cell line; doubled drug concentration (10 μg/ml DOX) alone
  cell death: about 30%
P388/ADR cells [3]; 5 μg/ml Doxorubicin alone
  intracellular accumulation of doxorubicin alone (confocal images): quite poor
C-26 cells [2]
  solid tumor volume with time, single agent: increases fast and exponentially
B16F10 cells
  lung metastatic burden (lung weight, number of metastasis), single agent: only a mild reduction in the metastatic burden
[4]
  change in body weight, single agent: minor weight decrease
[1]
  reduction in cell survival, drug alone: 50%
C6 cells
  time for complete depletion of intracellular DOX: ≤ 2 h

## COc1ccc(CCN(C)CCCC(C#N)(c2ccc(OC)c(OC)c2)C(C)C)cc1OC (centres unmarked) [Verapamil]
P388/ADR cell line
  increase in cell death, combined treatment with DOX: modest increase in cell death
P388/ADR cells [5]
  increase of intracellular Rhodamine-123 fluorescence vs chemosensitizer-free control: about 60%
C-26 cells [6]
  intracellular accumulation of Rhodamine-123 (confocal images): an increase in the intracellular level of Rhodamine-123

## CNCCC(Oc1ccc(C(F)(F)F)cc1)c1ccccc1 (centres unmarked) [fluoxetine, N-methyl 3-(p-trifluoromethylphenoxy)-3-phenylpropylamine]
P388/WT cell line; DOX with 5 μM fluoxetine vs DOX alone
  effect of combination treatment on level of cells death: had no effect on the level of cells death
P388/WT cell line; [9]
  effect on cells viability: no effect on cells viability
P388/ADR cell line
  increase in cell death, combined treatment with DOX: significant increase
P388/ADR cell line; DOX + 5 μM fluoxetine vs DOX + 5 μM Verapamil or CsA
  increase in cell death as compared with Verapamil and CsA: 2-3 fold
P388/ADR cell line; [9]
  effect on cells viability: no effect on cells viability
P388/ADR cells [5]
  increase of intracellular Rhodamine-123 fluorescence vs chemosensitizer-free control: about 200%
C-26 cells [6]
  intracellular accumulation of Rhodamine-123 (confocal images): substantially higher increase in the intracellular accumulation of Rhodamine-123
P388/ADR cells [3]; 5 μg/ml Doxorubicin + 5 μM fluoxetine, monolayers
  intracellular level of DOX (confocal images): substantial increase in the intracellular level of DOX
C-26 cells [2]; DOX+CS (DOX 5 mg/kg, fluoxetine 0.04 mg/kg daily oral)
  survival prolonged vs saline, CS alone and CT alone: 3 fold
C-26 cells [2]; MMC+CS (MMC 5 mg/kg, fluoxetine 0.04 mg/kg daily oral)
  survival prolonged vs saline, CS alone and CT alone: 2 fold
C-26 cells [2]; fluoxetine 0.04 mg/kg daily oral + MMC or DOX 5 mg/kg
  solid tumor growth, combination therapy: tumor growth is significantly slower
C-26 cells [2]
  solid tumor volume with time, single agent: increases fast and exponentially
B16F10 cells; 75-days experiment
  survival, CS alone: died rather early
B16F10 cells; CS + Doxorubicin, 75-days experiment
  survival, combination treatment: long survivors
B16F10 cells
  lung metastatic burden (lung weight, number of metastasis), single agent: highest metastatic burden
B16F10 cells; chemosensitizer + Doxorubicin 10 mg/kg
  lung metastatic burden, combination treatment: substantial reduction
P388/WT
  animals' survival, combined DOX and fluoxetine: had no effect on animal's survival
P388/ADR
  elongated life span, combination of fluoxetine and DOX: more than 2 fold
[4]
  change in body weight, single agent: no weight loss
C6 and PANC-1 cells
  effect on cell survival: does not affect cell survival at all
[7]
  cell death, combination of the drug and fluoxetine: 80-90%
[1]; fluoxetine alone, 0-15 μM
  toxicity to the cells: not toxic to the cells
[8]
  safe, substantially side effect-free daily dose range: 10-15 mg/M^2
